The target in assay [1] is T1, IRAK4 (Homo sapiens, UniProt Q9NWZ3).
T1 sequence (Q9NWZ3 1-460): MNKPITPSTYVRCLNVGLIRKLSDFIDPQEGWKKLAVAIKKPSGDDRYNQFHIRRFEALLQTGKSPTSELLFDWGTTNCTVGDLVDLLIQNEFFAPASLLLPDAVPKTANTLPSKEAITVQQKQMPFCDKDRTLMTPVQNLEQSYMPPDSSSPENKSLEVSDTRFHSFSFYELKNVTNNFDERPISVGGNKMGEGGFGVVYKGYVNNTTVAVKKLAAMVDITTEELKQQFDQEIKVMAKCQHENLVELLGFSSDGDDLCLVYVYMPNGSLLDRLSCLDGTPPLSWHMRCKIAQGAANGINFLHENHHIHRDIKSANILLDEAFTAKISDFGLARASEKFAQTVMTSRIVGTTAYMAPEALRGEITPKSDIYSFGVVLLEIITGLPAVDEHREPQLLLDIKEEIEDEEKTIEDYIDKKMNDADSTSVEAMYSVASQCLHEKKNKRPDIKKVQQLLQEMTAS
The experiment in a line: IRAK4 PhosphoSens Biochemical Assay (BIOCHEM). The note with it: IRAK4 1 nM; ATP and Sox conjugated peptide substrate AQT0326; pH 7.5; room temperature; 240 minutes. Here is the method: The PhosphoSens® biochemical assay was performed as described by the vendor (AssayQuant Technologies Inc. Marlborough, MA). A 1.25× stock solution of IRAK4 (PV4002, ThermoFisher Scientific, Waltham, MA) and a 5× stock solution of ATP and Sox conjugated peptide substrate, AQT0326 (CSKS-AQT0326B, AssayQuant Technologies), were prepared in 1× kinase reaction buffer consisting of 50 mM HEPES, pH 7.5, 0.01% Brij-35, 0.5 mM EGTA, 20 mM MgCl2 and 1 mM DTT. 10 μL of the ATP and substrate solution mix, for a final concentration of 200 µM ATP and […] peptide substrate, was added to a Corning 3574 384-well, white, non-binding surface microtiter plate containing 0.5 μL of serially diluted test compounds prepared in DMSO. The reactions were started with the addition of 40 μL of the enzyme solution, for a final IRAK4 concentration of 1 nM, and monitored every 71 seconds for 240 minutes at λEX 360/λEM 485 in a BioTek Synergy H4 plate reader (Agilent Technologies, Santa Clara, CA) at room temperature. The initial linear portions of the progress curves were fit according to a linear equation to yield the slopes and converted to % inhibition based on a value of 100% activity for the no inhibitor treated control. IC50 values of each compound were obtained by fitting the % inhibition-compound concentration curves using Dotmatics software (Dotmatics, Bishops Stortford, Hertfordshire, England),

The target in assay [2] is T1, IRAK4. In words: ALE THP1 HTRF (IRAK4 HTRF in THP1 cell lysate, Cisbio HTRF kit). The assay is classed as cell-based. Set-up: THP1 Homogeneous Time Resolved Fluorescence (ALE THP1 HTRF) Procedure; endogenous in cells; host or cells: THP1. The note with it: anti-IRAK4 d2 / anti-IRAK4 k antibodies. Here is the method: Cell culture media was prepared in a tissue culture hood in a sterile environment by adding 10% FBS and 1% Penicillin Streptomycin to 500 mL no phenol red RPMI 1640 media. The media was filtered through a Nalgene Bottle Top Filter and stored at 4° C.
For Homogenous Time Resolved Fluorescence (HTRF) assays, a Cisbio HTRF kit was used, which included: Lysis Buffer #1 4×, Blocking Reagent #3 100×, 20× Antibody 1 (Anti-IRAK4 d2), 20× Antibody 2 (Anti-IRAK4 k), and Detection Buffer.
4× Lysis Buffer was stored at 4° C. For use as 1× Lysis buffer, the 4× solution was diluted with de-ionized water (distilled water, Gibco Cat. #15230279) and 100× Blocking Reagent in a 1:3:0.04 volume ratio.
20× Antibody Solution aliquots were stored at −80° C. and the Detection Buffer was stored at 4° C. For use as a 1× Antibody Solution, the 20× Antibody Solution aliquot was diluted with Detection Buffer in a 1:19 volume ratio.
Cells were lysed at room temperature for 45 min with shaking. A BCA protein assay was performed and normalization was conducted to the desired total protein concentration with 1× lysis buffer. Next, 1× Antibody Solutions were prepared by adding 380 μL Detection Buffer to 20 μL 20× Antibody Solution aliquots and mixing well. 1× Antibody Solutions were combined 1:1 and briefly vortexed. For control wells, 20 μL 1× anti IRAK4-k Antibody Solution was saved. The 384-well plate (ProxiPlate-384 Plus, Perkin Elmer Cat. #6008289) was loaded by adding 4 μL of the mixed Antibody Solution to empty wells using a single channel repeater. Using a multi-channel repeater, 16 μL lysate was added per well, and any bubbles that were formed were popped with 20 μL pipette tips and Kimwipe edges. In column 10, triplicates of each control were prepared. In wells A10, B10, and C10, buffer control was prepared by adding 16 μL Lysis Buffer and 4 μL Detection Buffer. In wells D10, E10, and F10, cryptate control was prepared by adding 16 μL Lysis Buffer, 2 μL Detection Buffer, and 2 μL 1× anti-IRAK4-k Antibody Solution. In wells G10, H10, and 110, a negative control was prepared by adding 16 μL Lysis Buffer and 4 μL mixed Antibody Solution. The plate was sealed with a clear seal and covered with an aluminum lid. The plate was spun down at 800 g for 5 min and incubated in the dark at room temperature overnight. The next day, the plate was spun down at 800 g for 5 min. The samples were analyzed by a plate reader (Envision, PerkinElmer) using the Desnor 384 HTRF program.
For orientation: TR-FRET usually uses a lanthanide donor and a delayed reading to cut background.

SMILES strings stand for the structures. Where a name gives a salt, the structure may show the parent alone. A value given as a limit tells only on which side of the number the result lay.

Broadly, the IC50 is the concentration that gives 50% inhibition. In general, EC50 refers to the concentration that produces a half-maximal response. A high value points to lower potency in that assay. `N[C@@H]1C[C@@H](F)CN(c2ccn3ncc(C(=O)Nc4cn([C@H]5CC[C@H](C(=O)N6CCN(c7ccc8c(c7)C(=O)N(C7CCC(=O)NC7=O)C8=O)CC6)CC5)nc4C(F)F)c3n2)C1` (stereo partly drawn) [Compound P-15]: the IC50 in assay [1] was less than 0.5 nM. In assay [2], the midpoint of the response, the EC50, lay at 8 nM and the “ALE THP1 HTRF YMIN” value turned out to be 18%.

Consider `O=C1CCC(N2C(=O)c3ccc(N4CCN(C(=O)C5CCC(n6cc(NC(=O)c7cnn8ccc(N9CCNCC9)nc78)c(C(F)F)n6)CC5)CC4)cc3C2=O)C(=O)N1` (stereo not drawn) [Compound P-16], for which, in assay [1], the IC50 was found to be 0.5 nM. For the same compound, in assay [2], the EC50 stood at 13 nM and the “ALE THP1 HTRF YMIN” value was 41%.

In the case of `O=C1CCC(N2Cc3cc(N4CCC(NC(=O)[C@H]5CC[C@H](n6cc(NC(=O)c7cnn8ccc(N9CCOCC9)nc78)c(C(F)F)n6)CC5)CC4)ccc3C2=O)C(=O)N1` (stereo partly drawn) [Compound P-31, N-[3-(difluoromethyl)-1-[4-[[1-[2-(2,6-dioxo-3-piperidyl)-1-oxo-isoindolin-5-yl]-4-piperidyl]carbamoyl]cyclohexyl]pyrazol-4-yl]-5-morpholino-pyrazolo[1,5-a]pyrimidine-3-carboxamide], in assay [1], the half-maximal inhibitory concentration (IC50) is less than 0.5 nM. In assay [2], a half-maximal response (EC50) required 7 nM and the “ALE THP1 HTRF YMIN” value stood at 27%.

`CN(C[C@H]1CC[C@H](n2cc(NC(=O)c3cnn4ccc(N5CCOCC5)nc34)c(C(F)F)n2)CC1)[C@H]1CC[C@H](Nc2cccc3c2C(=O)N(C2CCC(=O)NC2=O)C3=O)CC1` (stereo partly drawn) [Compound P-36]: the IC50 in assay [1] is 0.9 nM. In assay [2], the EC50 amounted to 9 nM and the “ALE THP1 HTRF YMIN” value came out at 29%.

On to `N[C@@H]1C[C@@H](F)CN(c2ccn3ncc(C(=O)Nc4cn([C@H]5CC[C@H](C(=O)NC6CCN(c7ccc8c(c7)CN(C7CCC(=O)NC7=O)C8=O)CC6)CC5)nc4C(F)F)c3n2)C1` (stereo partly drawn) [Compound P-24], for which the half-maximal inhibitory concentration (IC50) in assay [1] was less than 0.5 nM. Also, in assay [2], the EC50 turned out to be 4 nM and the “ALE THP1 HTRF YMIN” value came out at 11%.

As for `N#Cc1nn(C2CCC(C(=O)N3CCN(c4ccc5c(c4)C(=O)N(C4CCC(=O)NC4=O)C5=O)CC3)CC2)cc1NC(=O)c1cnn2ccc(N[C@@H]3CCCC[C@@H]3N)nc12` (stereo partly drawn) [Compound P-7], the IC50 in assay [1] is less than 0.5 nM. For the same compound, in assay [2], the EC50 was more than 10000 nM and the “ALE THP1 HTRF YMIN” value came to 74%.

As for `CN(C[C@H]1CC[C@H](n2cc(NC(=O)c3cnn4ccc(N5C[C@H](N)C[C@@H](F)C5)nc34)c(C(F)F)n2)CC1)C1CCN(c2ccc3c(c2)CN(C2CCC(=O)NC2=O)C3=O)CC1` (stereo partly drawn) [Compound P-32, N-[3-(Difluoromethyl)-1-[4-[[[1-[2-(2,6-dioxo-3-piperidyl)-1-oxo-isoindolin-5-yl]-4-piperidyl]-methyl-amino]methyl]cyclohexyl]pyrazol-4-yl]-5-[(3r,5r)-3-amino-5-fluoro-1-piperidyl]pyrazolo[1,5-a]pyrimidine-3-carboxamide hydrochloride], the IC50 in assay [1] is less than 0.5 nM. Moreover, in assay [2], the EC50 was 6 nM and the “ALE THP1 HTRF YMIN” value is listed as 12%.

`CN(C[C@H]1CC[C@H](n2cc(NC(=O)c3cnn4ccc(N5C[C@H](N)C[C@@H](F)C5)nc34)c(C(F)F)n2)CC1)[C@H]1CC[C@H](Nc2cccc3c2C(=O)N(C2CCC(=O)NC2=O)C3=O)CC1` (stereo partly drawn) [Compound P-37]: the IC50 in assay [1] was less than 0.5 nM. Further, in assay [2], a half-maximal response (EC50) required 20 nM and the “ALE THP1 HTRF YMIN” value is 12%.

Consider `N[C@@H]1C[C@@H](F)CN(c2ccn3ncc(C(=O)Nc4cn([C@H]5CC[C@H](C(=O)N6CCN(c7ccc8c(c7)C(=O)N(C7CCC(=O)NC7=O)C8)CC6)CC5)nc4C(F)F)c3n2)C1` (stereo partly drawn) [Compound P-21], for which, in assay [1], the IC50 was less than 0.5 nM. For the same compound, in assay [2], it took 5 nM to reach a half-maximal effect (EC50) and the “ALE THP1 HTRF YMIN” value was 18%.

In the case of `Cc1c(NC(=O)c2cnn3ccc(N4C[C@H](N)C[C@@H](F)C4)nc23)cnn1[C@H]1CC[C@H](C(=O)NC2CCN(c3ccc4c(c3)C(=O)N(C3CCC(=O)NC3=O)C4=O)CC2)CC1` (stereo partly drawn) [Compound P-28], in assay [1], the IC50 was more than 1 nM. In addition, in assay [2], the EC50 was more than 10000 nM and the “ALE THP1 HTRF YMIN” value is recorded as more than 95%.

`N#Cc1nn([C@H]2CC[C@H](C(=O)N3CCN(c4ccc5c(c4)C(=O)N(C4CCC(=O)NC4=O)C5=O)CC3)CC2)cc1NC(=O)c1cnn2ccc(N3CCNCC3)nc12` (stereo partly drawn) [Compound P-1, N-(3-cyano-1-((1r,4r)-4-(4-(2-(2,6-dioxopiperidin-3-yl)-1,3-dioxoisoindolin-5-yl)piperazine-1-carbonyl)cyclohexyl)-1H-pyrazol-4-yl)-5-(piperazin-1-yl)pyrazolo[1,5-a]pyrimidine-3-carboxamide hydrochloride]: in assay [1], the IC50 stood at 8.6 nM. Also, in assay [2], a half-maximal response (EC50) required 67 nM and the “ALE THP1 HTRF YMIN” value amounted to 30%.

As to `N#Cc1nn(C2CCC(C(=O)N3CCN(c4ccc5c(c4)C(=O)N(C4CCC(=O)NC4=O)C5)CC3)CC2)cc1NC(=O)c1cnn2ccc(N3CCNCC3)nc12` (stereo not drawn) [Compound P-2], the IC50 in assay [1] was 15.3 nM. In addition, in assay [2], the EC50 was more than 10000 nM and the “ALE THP1 HTRF YMIN” value came to 63%.

Take `N[C@@H]1C[C@@H](F)CN(c2ccn3ncc(C(=O)Nc4cn([C@H]5CC[C@H](NC(=O)C6CCN(c7ccc8c(c7)C(=O)N(C7CCC(=O)NC7=O)C8=O)CC6)CC5)nc4C(F)F)c3n2)C1` (stereo partly drawn) [Compound P-29, 5-[(3R,5R)-3-Amino-5-fluoro-1-piperidyl]-N-[3-(difluoromethyl)-1-[4-[[1-[2-(2,6-dioxo-3-piperidyl)-1,3-dioxo-isoindolin-5-yl]piperidine-4-carbonyl]amino]cyclohexyl]pyrazol-4-yl]pyrazolo[1,5-a]pyrimidine-3-carboxamide hydrochloride]: in assay [1], the IC50 is less than 0.5 nM. Also, in assay [2], the EC50 turned out to be 4 nM and the “ALE THP1 HTRF YMIN” value is on record as 10%.

As to `N[C@@H]1C[C@@H](F)CN(c2ccn3ncc(C(=O)Nc4cn([C@H]5CC[C@H](C(=O)N6CCN(c7ccc8c(c7)C(=O)N(C7CCC(=O)NC7=O)C8=O)CC6)CC5)nc4C(F)(F)F)c3n2)C1` (stereo partly drawn) [Compound P-13, 5-[(3R,5R)-3-Amino-5-fluoro-1-piperidyl]-N-[1-[4-[4-[2-(2,6-dioxo-3-piperidyl)-1,3-dioxo-isoindolin-5-yl]piperazine-1-carbonyl]cyclohexyl]-3-(trifluoromethyl)pyrazol-4-yl]pyrazolo[1,5-a]pyrimidine-3-carboxamide], the IC50 in assay [1] was less than 0.5 nM. Besides, in assay [2], a half-maximal response (EC50) required 8 nM and the “ALE THP1 HTRF YMIN” value was 24%.
